# Measured values: PubChem BioAssay AID2060897 (Molecular Pharmacology Branch, DTP, NCI, 2025)
# Test system: 966289-007-R4-J1-PDC complex spheroid viability
# Assay: Anticancer human tumor 966289-007-R4-J1-PDC patient-derived pancreatic adenocarcinoma cell line growth inhibition [RAS]
# Conditions: for IC50: curve of first compound; for viability, T/C: stronger effect = lower value
# Excerpt: RAS pathway inhibitors in Combinations in Complex Spheroids
# A high-throughput screen of multi-cell type tumor spheroids was designed to identify active combinations of RAS pathway inhibitors and targeted small molecules. Complex spheroids include a stromal component modeled by human endothelial cells (HUVEC) and fibroblasts modeled by human mesenchymal stem cells (MSCs). The concentration ranges selected for each drug and investigational agent were based upon clinically achievable concentrations if the clinical Cmax of the agent was known.
# Compounds. The drugs and investigational agents: abemaciclib (NSC768073), cobimetinib (NSC768068), divarasib (GDC6063, NSC841802), docetaxel (NSC628503), GDC-1971 (RLY-1971, NSC841576), gemcitabine (NSC613327), inavolisib (NSC800729), ipatasertib (NSC767898), KB-0742 (NSC834161), MRTX-1133 (NSC836407), osimertinib (NSC779217), RMC-4630 (NSC839698), RMC-6236 (NSC851965), RMC-6291 (NSC852671), Ro-3306 (NSC812927), sapanisertib (NSC764658), SN-38 (NSC673596), staurosporine (NSC755774), SY5609 (NSC837396), and tovorafenib (DAY101, NSC766906), were obtained from the National Cancer Institute (NCI) Developmental Therapeutics Program Chemical Repository. The FDA-approved anticancer drug set is available from the NCI Developmental Therapeutics Program. […] The stock solutions were prepared in dimethyl sulfoxide (DMSO, Sigma-Aldrich, St. Louis, MO, cat. D2650) at 800-fold the tested concentration and stored at -70 degrees C prior to their use. All drugs and investigational agents were tested over a range starting from a high concentration at or near the clinical Cmax and decreasing in half-log increments. If the clinical Cmax for an agent had not been determined, the highest concentration tested was 10 microM.
# Cell Culture. All cells were maintained in an incubator at 37 degrees C and 5% CO2 with 95% humidity. The PDC lines were cultured according to standard operating procedures established by the NCI PDMR. All PDCs were thawed and cultured in Matrigel-coated flasks prepared with a working solution of 1X Ham's F-12 nutrient mix, without supplementation (Invitrogen, Waltham, MA, cat. 11765054), 100 U/mL penicillin-streptomycin (Invitrogen, cat. 15140122), and 2.5% Matrigel (Corning Inc., Corning, NY, cat. 354248) for the first three passages. The 362531-283-R-J2-PDC and 782815-120-R-J1-PDC lines were cultured in 6C/Colon 1B media, which includes advanced DMEM/F-12 (Thermo Fisher Scientific, cat. 12634028), 10 mM HEPES (Thermo Fisher Scientific, cat. 15630080), 1X GlutaMAX supplement (Thermo Fisher Scientific, cat. 35050061), 0.1 mg/mL primocin (InvivoGen, San Diego, CA, cat. ant-pm-2), 10% defined fetal bovine serum, heat inactivated (HyClone Laboratories Inc., Logan, UT, cat. SH30070.03HI), 50% L-WRN conditioned media (ATCC, cat. CRL-3276), 1.25 mM N-Acetyl-L-cysteine (Sigma-Aldrich, cat. A9165), 10 mM nicotinamide (Sigma-Aldrich, cat. N0636), 1X B-27 supplement (Thermo Fisher Scientific, cat. 17504044), 1X N-2 supplement (Thermo Fisher Scientific, cat. 17502048), 50 ng/mL human EGF (Thermo Fisher Scientific, cat. PHG0311), and 10 microM Y-27632 dihydrochloride (Tocris Bioscience, cat. 1254). The K12877-001-R-J1-PDC line was cultured in 6I media, which includes all 6C/Colon 1B media plus 10 ng/mL human FGF-10 (PeproTech, cat. 100-26), 1 ng/mL human FGF-2 (PeproTech, cat. 100-18B), 1 µM prostaglandin E2 (Tocris Bioscience, cat. 2296), […] hydrocortisone (Sigma-Aldrich, cat. H4001), and […] bovine insulin (Sigma-Aldrich, cat. I6634). The K86415-001-R-J1-PDC line was cultured in 6D media, which includes all 6C/Colon 1B media components minus the L-WRN conditioned media. The 485176-168-R4-J1-PDC was cultured in PANC media, which includes all 6C/Colon 1B media plus 100 ng/mL human FGF-10 (PeproTech, cat. 100-26), 500 nM SB-431542 (Selleckchem, cat. S1067), and 10 nM gastrin (Tocris Bioscience, cat. 3006). […]
# 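Also: spheroids exposed to agents for one week before readout.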
# 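For viability, T/C in this document: percent viability relative to DMSO vehicle control wells as 100%.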
structure (smiles),measurement,setting,value
CC(C)n1nc(-c2ccc3oc(N)nc3c2)c2c(N)ncnc21 + C#Cc1c(F)ccc2cc(O)cc(-c3ncc4c(N5CC6CCC(C5)N6)nc(OCC56CCCN5CC(F)C6)nc4c3F)c12,IC50,second compound 0.0316 µM,46.5 nM
same,IC50,second compound 0.1 µM,49.9 nM
same,IC50,second compound 0.316 µM,38.8 nM
same,IC50,second compound 1 µM,42.6 nM
same,IC50,second compound 3.16 µM,41.5 nM
same,IC50,second compound 10 µM,23.3 nM
same,"viability, T/C","second compound 0.0316 µM, first compound 0.000316 µM",99.2%
same,"viability, T/C","second compound 0.0316 µM, first compound 0.001 µM",96.8%
same,"viability, T/C","second compound 0.0316 µM, first compound 0.00316 µM",91.8%
same,"viability, T/C","second compound 0.0316 µM, first compound 0.01 µM",106%
same,"viability, T/C","second compound 0.0316 µM, first compound 0.0316 µM",61.8%
same,"viability, T/C","second compound 0.0316 µM, first compound 0.1 µM",26.6%
same,"viability, T/C","second compound 0.1 µM, first compound 0.000316 µM",104%
same,"viability, T/C","second compound 0.1 µM, first compound 0.001 µM",99.4%
same,"viability, T/C","second compound 0.1 µM, first compound 0.00316 µM",104%
same,"viability, T/C","second compound 0.1 µM, first compound 0.01 µM",110%
same,"viability, T/C","second compound 0.1 µM, first compound 0.0316 µM",67%
same,"viability, T/C","second compound 0.1 µM, first compound 0.1 µM",24.1%
same,"viability, T/C","second compound 0.316 µM, first compound 0.000316 µM",111%
same,"viability, T/C","second compound 0.316 µM, first compound 0.001 µM",103%
same,"viability, T/C","second compound 0.316 µM, first compound 0.00316 µM",114%
same,"viability, T/C","second compound 0.316 µM, first compound 0.01 µM",109%
same,"viability, T/C","second compound 0.316 µM, first compound 0.0316 µM",56.3%
same,"viability, T/C","second compound 0.316 µM, first compound 0.1 µM",21%
same,"viability, T/C","second compound 1 µM, first compound 0.000316 µM",108%
same,"viability, T/C","second compound 1 µM, first compound 0.001 µM",118%
same,"viability, T/C","second compound 1 µM, first compound 0.00316 µM",119%
same,"viability, T/C","second compound 1 µM, first compound 0.01 µM",126%
same,"viability, T/C","second compound 1 µM, first compound 0.0316 µM",59.7%
same,"viability, T/C","second compound 1 µM, first compound 0.1 µM",22%
same,"viability, T/C","second compound 3.16 µM, first compound 0.000316 µM",108%
same,"viability, T/C","second compound 3.16 µM, first compound 0.001 µM",113%
same,"viability, T/C","second compound 3.16 µM, first compound 0.00316 µM",125%
same,"viability, T/C","second compound 3.16 µM, first compound 0.01 µM",105%
same,"viability, T/C","second compound 3.16 µM, first compound 0.0316 µM",58.7%
same,"viability, T/C","second compound 3.16 µM, first compound 0.1 µM",22.4%
same,"viability, T/C","second compound 10 µM, first compound 0.000316 µM",97.4%
same,"viability, T/C","second compound 10 µM, first compound 0.001 µM",94.1%
same,"viability, T/C","second compound 10 µM, first compound 0.00316 µM",126%
same,"viability, T/C","second compound 10 µM, first compound 0.01 µM",96.8%
same,"viability, T/C","second compound 10 µM, first compound 0.0316 µM",33.2%
same,"viability, T/C","second compound 10 µM, first compound 0.1 µM",17%
